PubChem BioAssay AID256 (DTP/NCI, 2004)
Toxic doses and inconclusive results are not listed. Rule for the calls: active = survival T/C of 150% or more; inactive = T/C below 125% in these data.

Test system: CD2F1 mice, L1210 leukemia ip, survival T/C
Assay: NCI In Vivo Anticancer Drug Screen. Data for tumor model L1210 Leukemia (intraperitoneal) in CD2F1 (CDF1) mice
Settings: higher = longer survival
How it was run: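 Read-out first: treated-group measurement over vehicle-control measurement, expressed as a ratio. Animals bore a transplanted tumor line and were dosed with compound or vehicle.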

[1] = endpoint: mean survival time, dose: 100.0 mg/kg/injection, schedule: Q01DX009 (ip), vehicle: saline with Tween-80
[2] = endpoint: mean survival time, dose: 200.0 mg/kg/injection, schedule: Q01DX009 (ip), vehicle: saline with Tween-80
[3] = endpoint: mean survival time, dose: 400.0 mg/kg/injection, schedule: Q01DX009 (ip), vehicle: saline with Tween-80
[4] = endpoint: mean survival time, dose: 100.0 mg/kg/injection, schedule: Q04DX003 (ip), vehicle: saline with Tween-80
[5] = endpoint: mean survival time, dose: 200.0 mg/kg/injection, schedule: Q04DX003 (ip), vehicle: saline with Tween-80
[6] = endpoint: mean survival time, dose: 400.0 mg/kg/injection, schedule: Q04DX003 (ip), vehicle: saline with Tween-80

Measured: T/C

C=CC(=O)Nc1cccc(OC(=O)NCC)c1
inactive: [1] 94 % of control | [2] 92 % of control | [3] 97 % of control

COc1ccc(OC)c(NC(=O)Oc2ccc(-c3ccccc3)cc2Cl)c1
inactive: [1] 105 % of control | [2] 102 % of control | [3] 106 % of control

COC(=O)CSc1nn(C2OC(COC(=O)c3ccccc3)C(OC(=O)c3ccccc3)C2OC(=O)c2ccccc2)c(=O)[nH]c1=O (stereo not drawn)
inactive: endpoint: mean survival time, dose: 12.5 mg/kg/injection, schedule: Q01DX005 (ip), vehicle: distilled water + Tween-80 92 % of control | endpoint: mean survival time, dose: 25.0 mg/kg/injection, schedule: Q01DX005 (ip), vehicle: distilled water + Tween-80 101 % of control | endpoint: mean survival time, dose: 50.0 mg/kg/injection, schedule: Q01DX005 (ip), vehicle: distilled water + Tween-80 93 % of control | endpoint: mean survival time, dose: 100.0 mg/kg/injection, schedule: Q01DX005 (ip), vehicle: distilled water + Tween-80 90 % of control | endpoint: mean survival time, dose: 200.0 mg/kg/injection, schedule: Q01DX005 (ip), vehicle: distilled water + Tween-80 88 % of control

CCCCC(CC)COCC1CO1 (stereo not drawn)
inactive: endpoint: mean survival time, dose: 50.0 mg/kg/injection, schedule: Q01DX009 (ip), vehicle: Klucel (hydroxypropylcellulose) (HPC) 102 % of control | endpoint: mean survival time, dose: 100.0 mg/kg/injection, schedule: Q01DX009 (ip), vehicle: Klucel (hydroxypropylcellulose) (HPC) 96 % of control | endpoint: mean survival time, dose: 200.0 mg/kg/injection, schedule: Q01DX009 (ip), vehicle: Klucel (hydroxypropylcellulose) (HPC) 100 % of control

CCOC1(CC)CN(Cc2ccccc2)CCO1 (stereo not drawn)
inactive: [4] 100 % of control | [5] 100 % of control | [6] 97 % of control

CCOC(=O)C1SCSCC1=O (stereo not drawn)
inactive: [1] 101 % of control | [2] 101 % of control | [3] 98 % of control

C/C=C/CC(C)C(O)C1C(=O)NC(CC)C(=O)N(C)CC(=O)N(C)C(CC(C)C)C(=O)NC(C(C)C)C(=O)N(C)C(CC(C)C)C(=O)NC(C)C(=O)NC(C)C(=O)N(C)C(CC(C)C)C(=O)N(C)C(CC(C)C)C(=O)N(C)C(C(C)C)C(=O)N1C (stereo not drawn)
inactive: endpoint: median survival time, dose: 25.0 mg/kg/injection, schedule: Q01DX009 (ip), vehicle: Klucel (hydroxypropylcellulose) (HPC) 102 % of control | endpoint: median survival time, dose: 50.0 mg/kg/injection, schedule: Q01DX009 (ip), vehicle: Klucel (hydroxypropylcellulose) (HPC) 107 % of control | endpoint: median survival time, dose: 100.0 mg/kg/injection, schedule: Q01DX009 (ip), vehicle: Klucel (hydroxypropylcellulose) (HPC) 106 % of control

CC(=O)C(C(C)=O)C1C=CCC1 (stereo not drawn)
inactive: [1] 107 % of control | [2] 104 % of control | [3] 101 % of control

O=C1OC(=O)C2C1OC1C(=O)OC(=O)C12 (stereo not drawn)
inactive: endpoint: mean survival time, dose: 6.25 mg/kg/injection, schedule: Q04DX002 (ip), vehicle: saline 103 % of control | endpoint: mean survival time, dose: 12.5 mg/kg/injection, schedule: Q04DX002 (ip), vehicle: saline 106 % of control | endpoint: mean survival time, dose: 25.0 mg/kg/injection, schedule: Q04DX002 (ip), vehicle: saline 95 % of control

CCCCCCCCN(C#N)CCCCCCCC
inactive: [1] 100 % of control | [2] 95 % of control | [3] 97 % of control

CC1CC(=O)C2=C(C1)NC(=O)CC2 (stereo not drawn)
inactive: [4] 90 % of control | [5] 96 % of control | [6] 101 % of control

NC(=S)N/N=C/c1nccn1-c1cccc([N+](=O)[O-])c1
inactive: endpoint: mean survival time, dose: 25.0 mg/kg/injection, schedule: Q04DX002 (ip), vehicle: Klucel (hydroxypropylcellulose) (HPC) 101 % of control | endpoint: mean survival time, dose: 50.0 mg/kg/injection, schedule: Q04DX002 (ip), vehicle: Klucel (hydroxypropylcellulose) (HPC) 96 % of control | endpoint: mean survival time, dose: 100.0 mg/kg/injection, schedule: Q04DX002 (ip), vehicle: Klucel (hydroxypropylcellulose) (HPC) 104 % of control
